Assay results as given in patent US20250326748A1, “COMPOUNDS AND METHODS FOR MODULATING SPLICING” (REMIX THERAPEUTICS INC., priority 2022, published 2025).
Structures can show the parent of a compound that is named as a salt. Where two headings read alike, the source gives them in different places.

How the values were obtained:
SMN2 mRNA = experiment: Splicing RT-qPCR panel, SMN2 canonical junction (CJ) mRNA; format: cell-based, human; settings: Homo sapiens, read-out: SMN2 CJ (decrease in CJ mRNA levels, IC50)
Method: (§1) Compounds described herein were used to modulate RNA transcript abundance in cells. The expression of a target mRNA was measured by detecting the formation of an exon-exon junction in the canonical transcript (CJ). A compound mediated exon-inclusion event was detected by observing an increase in formation of a new junction with an alternative exon (AJ). Real-time qPCR assays were used to detect these splicing switches and interrogate the potency of various compounds towards different target genes. A high-throughput real time quantitative PCR (RT-qPCR) assay was developed to measure these two isoforms of the mRNA (CJ and AJ) for exemplary genes, such as HTT, SMN2, and MYB, together with a control housekeeping gene, GAPDH or GUSB or PPIA, used for normalization. Briefly, the A673 or K562 cell line was treated with various compounds described herein (e.g., compounds of Formula (D). After treatment, the levels of the HTT, MYB, or SMN2 mRNA targets were determined from each sample of cell lysate by cDNA synthesis followed by qPCR.
(§2) The A673 cell line was cultured in DMEM with 10% FBS. Cells were diluted with full growth media and plated in a 96-well plate (15,000 cells in 100 ul media per well). The plate was incubated at 37° C. with 5% CO2 for 24 hours to allow cells to adhere. An 11-point 3-fold serial dilution of the compounds was made in DMSO then diluted in media in an intermediate plate. Compounds were transferred from the intermediate plate to the cell plate with the top dose at a final concentration of 10 uM in the well. Final DMSO concentration was kept at or below 0.25%. The cell plate was returned to the incubator at 37° C. with 5% CO2 for an additional 24 hours.
(§3) The K562 cell line was cultured in IMDM with 10% FBS. For K562, cells were diluted with full growth media and plated in either a 96-well plate (50,000 cells in 50 uL media per well) or a 384-well plate (8,000-40,000 cells in 45 uL media per well). An 11-point 3-fold serial dilution of the compounds were made in DMSO then diluted in media in an intermediate plate. Compound was transferred from the intermediate plate to the cell plate with the top dose at a final concentration of 10 uM in the well. Final DMSO concentration was kept at or below 0.25%. Final volume was 100 uL for 96-well plate and 50 uL for 384-well plate. The cell plate was then placed in an incubator at 37° C. with 5% CO2 for 24 hours.
(§4) The cells were then gently washed with 50 uL-100 uL cold PBS before proceeding to addition of lysis buffer. 30 uL-50 μL of room temperature lysis buffer with DNAse I (and optionally RNAsin) was added to each well. Cells were shaken/mixed thoroughly at room temperature for 5-10 minutes for lysis to take place and then 3 uL-5 μL of room temperature stop solution was added and wells were shaken/mixed again. After 2-5 minutes, the cell lysate plate was transferred to ice for RT-qPCR reaction setup. The lysates could also be frozen at −80° C. for later use.
(§5) In some cases, a direct lysis buffer was used. An appropriate volume of 3× lysis buffer (10 mM Tris, 150 mM NaCl, 1.5%-2.5% Igepal and 0.1-1 U/uL RNAsin, pH 7.4) was directly added to either K562 or A673 cells in media and mixed by pipetting 3 times. The plates were then incubated at room temperature with shaking/rocking for 20-50 minutes to allow for lysis to take place. After this time, the cell lysate plate was transferred to ice to set up for the RT-qPCR reactions. The lysates could also be frozen at −80° C. for later use.
(§6) To set up 10 uL RT-qPCR reactions, cell lysates were transferred to 384-well qPCR plates containing the master mix according to the table below. The plates were sealed, gently vortexed, and spun down before the run. The volumes were adjusted accordingly in some instances where the reaction was carried in 20 μL. The table below summarizes the components of the RT-qPCR reactions:
(§7) The RT-qPCR reaction was performed using a QuantStudio (ThermoFisher) under the following fast cycling conditions. […]

K562 cells = experiment: Cell viability, Cell Titer Glo 2.0 assay, K562; settings: 72 hours
Method: Compounds described herein were screened for toxicity in K562 (human chronic myelogenous leukemia) and SH-SY5Y (human neuroblastoma) cells using a Cell Titer Glo 2.0 assay.
• Promega CellTiter-Glo® 2.0 Cell Viability Assay (cat #G9241) • Corning 384-well TC-treated microplates (cat #3570)
Cells were plated at 500 cells/well (K562 cells) in 45 μL of IMDM supplemented with 10% FBS in a 384-well opaque plate. Wells containing only medium were used as a blank control. Test compounds (e.g., compounds of Formula (I) or (II)) were first serially diluted in DMSO then diluted 1:100 with IMDM+10% FBS. The final concentration of DMSO was 0.1% in each well. The cells were incubated for 72 hours at 37° C. and 5% CO2 before assaying with Cell Titer Glo 2.0 reagent.

HTT mRNA = experiment: Splicing RT-qPCR assay, HTT canonical (CJ) and alternative (AJ) junction mRNA; format: cell-based, human; settings: Homo sapiens; for IC50: canonical junction mRNA; for AC50: alternative junction mRNA, read-out: HTT AJ (AC50, increase in AJ mRNA)
Method: as §1
(§8) • Cells-to-CT 1-step kit: ThermoFisher A25602, Cells-to-CT lysis reagent: ThermoFisher 4391851C, TaqMan™ Fast Virus 1-Step Master Mix: ThermoFisher 4444436 • GAPDH: VIC-PL, ThermoFisher 4326317E (Assay: Hs99999905_m1)—used for K562/suspension cell lines • GUSB: VIC-PL, ThermoFisher 4326320E (Assay: Hs99999908_m1)—used for K562/suspension cell lines • PPIA: VIC-PL, ThermoFisher 4326316E (Assay: Hs99999904_m1)—used for A673/adherent cell lines
as §2, §3, §4
as §5, with “use. […]” for “use.”

MYB mRNA = experiment: Splicing RT-qPCR assay, MYB canonical (CJ) and alternative (AJ) junction mRNA; format: cell-based, human; settings: Homo sapiens; for IC50: canonical junction mRNA; for AC50: alternative junction mRNA, read-out: MYB AJ (AC50, increase in AJ mRNA)
Method: as §1, §8, §2, §3, §4
as §5, with “use. […]” for “use.”

Target C mRNA = experiment: Splicing RT-qPCR panel, Target C canonical junction (CJ) mRNA; format: cell-based, human; settings: Homo sapiens, read-out: Target C CJ (decrease in CJ mRNA levels, IC50)
Method: as §1, §2, §3, §4, §5, §6, §7

[1] = 24 h, RT-qPCR, A673 or K562 cells, 24 hours treatment, read-out: HTT CJ (IC50, decrease in CJ mRNA)
[2] = qPCR panel, read-out: HTT CJ (decrease in CJ mRNA levels, IC50)
[3] = RT-qPCR, A673 or K562 cells, 24 hours treatment
[4] = qPCR panel, read-out: MYB CJ (decrease in CJ mRNA levels, IC50)
[5] = RT-qPCR, A673 or K562 cells, 24 hours treatment, read-out: MYB CJ (IC50, decrease in CJ mRNA)

Row | Structure (SMILES) | IC50 (SMN2 mRNA) [µM] | IC50 (HTT mRNA; [1]) [µM] | IC50 (HTT mRNA; [2]) [µM] | IC50 (MYB mRNA; [4]) [µM] | IC50 (MYB mRNA; [5]) [µM] | IC50 (Target C mRNA) [µM] | Effect on Cell Viability, K562 (K562 cells) | AC50 (HTT mRNA; [3]) [µM] | AC50 (MYB mRNA; [3]) [µM]
1 | CN(c1cnc2nc(-c3cc(F)c4nn(C)cc4c3)ccc2c1)[C@H]1CCNC1 [Compound 367, 7-(7-fluoro-2-methylindazol-5-yl)-N-methyl-N-[(3S)-pyrrolidin-3-yl]-1,8-naphthyridin-3-amine] | 0.1 to 1 | > 10 | > 10 | 1 to 10 | 1 to 10 | > 10 | C (1000-9999 nM) | > 10 | 1 to 10
2 | C[C@H]1CN(c2cnc3nc(-c4cc(F)c5nn(C)cc5c4)ccc3c2)CCN1 [Compound 373, 2-(7-fluoro-2-methylindazol-5-yl)-6-[(3S)-3-methylpiperazin-1-yl]-1,8-naphthyridine] | < 0.1 | 1 to 10 | 1 to 10 | 0.1 to 1 | 0.1 to 1 | 1 to 10 | B (100-1000 nM) | 1 to 10 | 0.1 to 1
3 | COc1nc(-c2cc3cn(C)nc3c(C)c2O)nc2ncc(N3C[C@@H](C)N[C@@H](C)C3)cc12 [Compound 369] | < 0.1 | 1 to 10 | 1 to 10 | 0.1 to 1 | 0.1 to 1 | 1 to 10 | B (100-1000 nM) | 1 to 10 | 0.1 to 1
4 | C[C@H]1CN(c2cnc3nc(-c4cc5cn(C)nc5cc4O)cc(Cl)c3c2)C[C@H](C)N1C [Compound 404, 5-{4-chloro-6-[(3S,5S)-3,4,5-trimethylpiperazin-1-yl]-1,8-naphthyridin-2-yl}-2-methylindazol-6-ol] | < 0.1 | 1 to 10 | 1 to 10 | 0.1 to 1 | 0.1 to 1 | 1 to 10 | B (100-1000 nM) | 1 to 10 | 0.1 to 1
5 | Cc1cn2cc(-c3cc(Cl)c4cc(N5C[C@H](C)NC6(CC6)C5)cnc4n3)cc(F)c2n1 [Compound 401] | < 0.1 | 1 to 10 | 1 to 10 | 0.1 to 1 | 0.1 to 1 | 1 to 10 | C (1000-9999 nM) | 1 to 10 | 0.1 to 1
6 | Cc1cn2cc(-c3ccc4cc(N(C)[C@@H]5CCNC5)cnc4n3)cc(F)c2n1 [Compound 361, 7-{8-fluoro-2-methylimidazo[1,2-a]pyridin-6-yl}-N-methyl-N-[(3R)-pyrrolidin-3-yl]-1,8-naphthyridin-3-amine hydrochloride] | > 10 | > 10 | > 10 | > 10 | > 10 | > 10 | C (1000-9999 nM) | > 10 | > 10
7 | CN(C)C1CCN(c2ccc3nc(-c4cc5cn(C)nc5c(F)c4O)cnc3c2)CC1 [Compound 360, 5-{6-[4-(dimethylamino)piperidin-1-yl]quinoxalin-2-yl}-7-fluoro-2-methylindazol-6-ol] | < 0.1 | 0.1 to 1 | 0.1 to 1 | < 0.1 | < 0.1 | 1 to 10 | B (100-1000 nM) | > 10 | 0.1 to 1

Continued, in another order:

Row | IC50 (SMN2 mRNA) [µM] | IC50 (HTT mRNA; [1]) [µM] | IC50 (HTT mRNA; [2]) [µM] | IC50 (MYB mRNA; [4]) [µM] | IC50 (MYB mRNA; [5]) [µM] | IC50 (Target C mRNA) [µM] | Structure (SMILES) | Effect on Cell Viability, K562 (K562 cells) | AC50 (HTT mRNA; [3]) [µM] | AC50 (MYB mRNA; [3]) [µM]
8 | < 0.1 | 0.1 to 1 | 0.1 to 1 | 0.1 to 1 | 0.1 to 1 | 1 to 10 | COc1cc(-c2cc3cn(C)nc3c(C)c2O)nc2ncc(N3CCNCC3)cc12 [Compound 152, 5-(4-methoxy-6-(piperazin-1-yl)-1,8-naphthyridin-2-yl)-2,7-dimethyl-2H-indazol-6-ol 2,2,2-trifluoroacetate] | B (100-1000 nM) | 1 to 10 | 0.1 to 1
9 | < 0.1 | < 0.1 | < 0.1 | < 0.1 | < 0.1 | 0.1 to 1 | C[C@@H]1CN(c2cnc3nc(-c4cc5cn(C)nc5cc4O)cc(C4CC4)c3c2)C[C@H](C)N1 [Compound 364, 5-{4-cyclopropyl-6-[(3R,5S)-3,5-dimethylpiperazin-1-yl]-1,8-naphthyridin-2-yl}-2-methylindazol-6-ol hydrochloride] | C (1000-9999 nM) | 0.1 to 1 | 0.1 to 1
10 | < 0.1 | 1 to 10 | 1 to 10 | 0.1 to 1 | 0.1 to 1 | 1 to 10 | C[C@H]1CN(c2cnc3nc(-c4cc(F)c5nn(C)cc5c4)cc(Cl)c3c2)CC2(CC2)N1 [Compound 396] | C (1000-9999 nM) | 1 to 10 | 0.1 to 1
11 | < 0.1 | > 10 | > 10 | 0.1 to 1 | 0.1 to 1 | > 10 | CN1CCC[C@H]2CN(c3cnc4nc(-c5cc6cn(C)nc6cc5O)cc(Cl)c4c3)C[C@H]21 [Compound 372, 5-{6-[(4aS,7aS)-1-methyl-hexahydro-2H-pyrrolo[3,4-b]pyridin-6-yl]-4-chloro-1,8-naphthyridin-2-yl}-2-methylindazol-6-ol] | B (100-1000 nM) | > 10 | 0.1 to 1
12 | < 0.1 | 0.1 to 1 | 0.1 to 1 | < 0.1 | < 0.1 | 1 to 10 | Cc1c(O)c(-c2ccc3c(Cl)c(N4C[C@H](C)N[C@@H](C)C4)cnc3n2)cc2cn(C)nc12 [Compound 394] | B (100-1000 nM) | 0.1 to 1 | < 0.1
